{"source": "paper PMC10064330", "about": "“Reversible Dual-Covalent Molecular Locking of the 14-3-3/ERRγ Protein–Protein Interaction as a Molecular Glue Drug Discovery Approach” (Journal of the American Chemical Society, 2023)", "molecular_target": "T1, 14-3-3γ/ERRγ complex (Homo sapiens, UniProt P61981+P62508)", "T1 construct": "made in house; host or cells: E. coli NiCo21 (DE3)", "T1 sequence (P61981 whole entry, other chains not shown)": "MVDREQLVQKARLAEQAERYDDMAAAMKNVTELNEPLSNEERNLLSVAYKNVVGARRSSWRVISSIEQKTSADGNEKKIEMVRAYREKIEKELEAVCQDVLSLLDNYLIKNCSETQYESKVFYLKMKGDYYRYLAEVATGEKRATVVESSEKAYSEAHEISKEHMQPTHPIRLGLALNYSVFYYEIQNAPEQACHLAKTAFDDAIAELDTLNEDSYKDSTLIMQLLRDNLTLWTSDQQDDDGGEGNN", "assay": "Time-dependent intact MS in competitive mixture of nine client phosphopeptides", "format": "biochemical", "text": "14-3-3 proteins interact with many phosphorylated proteins, with differing affinities and cellular concentrations.[44],[49],[50] On the cellular level, there is a large reservoir of 14-3-3, typically in vast excess to its binding partners. Notwithstanding, we were interested in developing a testable model for the effect of the molecular locking on a PPI network. To investigate the intricacies of selective stabilization of the 14-3-3/ERRγ interaction in a complex matrix, we performed time-dependent intact MS experiments in a competitive environment of excess of 14-3-3 client phosphopeptides. A mixture of 14-3-3 (1 eq.), molecular lock 5 (10 eq.), ΕRRγ (2 eq.), and eight additional client phosphopeptides (8 × 2 eq.) was incubated, and incremental samples were taken, quenched with sodium cyanoborohydride, and measured (Figure 5). […] The peptide panel contained four higher-affinity and three lower-affinity 14-3-3 binding clients, relative to ERRγ, (Figure 5b) and contained +1 Cys-containing peptides RND3 and PKR.\nFigure S23a. QTOF-MS analysis of 14-3-3/peptide mix/5. […] Calculated mass 14-3-3γ apo:\n31542.8 Da. Calculated mass covalently crosslinked 14-3-3γ/ERRγ/5 complex: 33019.5 Da. […]\nDifferent Scanning Fluorimetry (DSF) assays were performed using 40 µL samples containing 5 µM 14-3-3γ, 50 µM ERRγ pS179 9-mer peptide, 200 µM compound (or 1% DMSO) and 5x ProteoOrange (Lumiprobe, 5000x stock in DMSO) in 10 mM Hepes, 150 mM NaCl, 50 µM TCEP (pH 8.0). […] Fluorescence intensity was determined using excitation 470/40 nm and emission 570/20 nm filters. Based on these melting curves, the negative derivative melting curve is obtained from which the melting temperature Tm was determined. ΔTm values represent the differences in melting temperature relative to the DMSO control. All described melting temperatures are based on three independent experiments from which the average and standard deviations were determined using excel. […]"}
{"molecule": "CN(C)CCSSCCN(C)C(=O)c1ccc(C=O)c(F)c1", "note": "[compound 5]", "values": [{"measurement": "maximum crosslinking efficiency (14-3-3γ/ERRγ/5 complex formation)", "setting": "14-3-3γ 5 μM, ERRγ 10 μM, 5 50 μM, eight additional phosphopeptides 10 μM each", "value": 35, "unit": "%"}, {"measurement": "increase in total number of 14-3-3/ERRγ complexes in solution", "setting": "intact MS 35% vs modeled 2.4% ERRγ bound", "value": 15, "unit": "fold"}, {"measurement": "reduction in crosslinking capacity, peptide mix vs ERRγ in isolation", "setting": "peptide competitors relative to ERRγ 8:1", "value": "~2", "unit": "fold"}]}
